For four compounds, IC50 results are on record in patent US20090306126A1, “Indole Derivatives” (ASTRAZENECA AB, priority 2006, published 2009).

For assay [1], the target named is T1, p110α Type Ia human PI3K (Homo sapiens, UniProt P42336).
T1 construct: full length DNA of each of the p110α, p110β and p110δ Type Ia human PI3K p110 isoforms; 6-His; made in house
In words: In vitro PI3K enzyme assay (AlphaScreen), Test (a). Type of assay: biochemical. Conditions: recombinant enzyme, ATP 4 μM, read-out: IC50 versus p110α Type Ia human PI3K. The text has this:
(a) In Vitro PI3K Enzyme Assay
The assay used AlphaScreen technology (Gray et al., Analytical Biochemistry, 2003, 313: 234-245) to determine the ability of test compounds to inhibit phosphorylation by recombinant Type I PI3K enzymes of the lipid PI(4,5)P2.
DNA fragments encoding human PI3K catalytic and regulatory subunits were isolated from cDNA libraries using standard molecular biology and PCR cloning techniques. The selected DNA fragments were used to generate baculovirus expression vectors. In particular, full length DNA of each of the p110α, p110β and p110δ Type Ia human PI3K p110 isoforms (EMBL Accession Nos. HSU79143, S67334, Y10055 for p110α, p110β and p110δ respectively) were sub-cloned into a pDEST10 vector (Invitrogen Limited, Fountain Drive, Paisley, UK). The vector is a Gateway-adapted version of Fastbac1 containing a 6-His epitope tag. A truncated form of Type Ib human PI3K p110γ isoform corresponding to amino acid residues 144-1102 (EMBL Accession No. X8336A) and the full length human p85α regulatory subunit (EMBL Accession No. HSP13KIN) were also sub-cloned into pFastBac1 vector containing a 6-His epitope tag. The Type Ia p110 constructs were co-expressed with the p85α regulatory subunit. Following expression in the baculovirus system using standard baculovirus expression techniques, expressed proteins were purified using the His epitope tag using standard purification techniques.
DNA corresponding to amino acids 263 to 380 of human general receptor for phosphoinositides (Grp1) PH domain was isolated from a cDNA library using standard molecular biology and PCR cloning techniques. The resultant DNA fragment was sub-cloned into a pGEX 4T1 E. coli expression vector containing a GST epitope tag (Amersham Pharmacia Biotech, Rainham, Essex, UK) as described by Gray et al., Analytical Biochemistry, 2003, 313: 234-245). The GST-tagged Grp1 PH domain was expressed and purified using standard techniques.
Test compounds were prepared as 10 mM stock solutions in DMSO and diluted into water as required to give a range of final assay concentrations. Aliquots (2 μl) of each compound dilution were placed into a well of a Greiner 384-well low volume (LV) white polystyrene plate (Greiner Bio-one, Brunel Way, Stonehouse, Gloucestershire, UK Catalogue No. 784075). […]
Biotinylated-DiC8-PI(3,4,5)P3 (50 nM; Cell Signals Inc., Catalogue No. 107), recombinant purified GST-Grp1 PH protein (2.5 nM) and AlphaScreen Anti-GST donor and acceptor beads (100 ng; Packard Bioscience Limited, Station Road, Pangbourne, Berkshire, UK, Catalogue No. 6760603M) were added and the assay plates were left for about 5 to 20 hours at room temperature in the dark. The resultant signals arising from laser light excitation at 680 nm were read using a Packard AlphaQuest instrument. […]
(In general: Alpha assays give light when donor and acceptor beads are brought close together.)

For assay [2], the system named is phosphorylation of Serine 473 in Akt. In words: In vitro phospho-Ser473 Akt assay in MDA-MB-468 cells, Test (c). Conditions: Homo sapiens, 2 hours, read-out: IC50, inhibition of phosphorylation of Serine 473 in Akt. The class given is cell-based. The procedure: (c) In Vitro Phospho-Ser473 Akt Assay
This assay determines the ability of test compounds to inhibit phosphorylation of Serine 473 in Akt as assessed using Acumen Explorer technology (TTP LabTech Limited, Royston, Herts, SG8 6EE, UK), a plate reader that can be used to rapidly quantitate features of images generated by laser-scanning.
A MDA-MB-468 human breast adenocarcinoma cell line (LGC Promochem, Teddington, Middlesex, UK, Catalogue No. HTB-132) was routinely maintained at 37° C. with 5% CO2 up to a confluency of 70-90% in DMEM containing 10% FCS and 1% L-glutamine.
For the assay, the cells were detached from the culture flask using ‘Accutase’ (Innovative Cell Technologies Inc., San Diego, Calif., USA; Catalogue No. AT104) using standard tissue culture methods and resuspended in media to give 5.5×10^4 cells per ml. Aliquots (90 μl) were seeded into each of the inner 60 wells of a black ‘Costar’ 96-well plate (Corning Inc., NY, USA; Catalogue No. 3904) to give a density of ˜5000 cells per well. Aliquots (90 μl) of culture media were placed in the outer wells to prevent edge effects. [An alternative cell handling procedure involved the maintenance of the cells in a ‘SelecT’ robotic device (The Automation Partnership, Royston, Herts SG8 5WY, UK). Cells were resuspended in media to give 5×10^4 cells per ml. Aliquots (100 μl) were seeded into the wells of a black ‘Costar’ 96-well plate.] The cells were incubated overnight at 37° C. with 5% CO2 to allow them to adhere.
On day 2, the cells were treated with test compounds. Test compounds were prepared as 10 mM stock solutions in DMSO and serially diluted as required with DMSO and with growth media to give a range of concentrations that were 10-fold the required final test concentrations. Aliquots (10 μl) of each compound dilution were placed in duplicate wells to give the final required concentrations. As a minimum response control, each plate contained wells having a final concentration of 30 μM LY294002 (Calbiochem, Beeston, UK, Catalogue No. 440202). As a maximum response control, wells contained 0.5% DMSO instead of test compound. [An alternative cell treatment procedure involved the transfer of test compounds to the wells using an ‘Echo 550’ liquid dispenser (Labcyte Inc., Sunnyvale, Calif. 94089, USA). Test compounds were prepared as 10 mM stock solutions in DMSO and aliquots (40 μl) of each compound were dispensed into one well of a quadrant of wells within a 384-well plate (Labcyte Inc., Catalogue No. P-05525-CV1). Four concentrations of each compound were prepared in each quadrant of wells in the 384-well plate using a ‘Hydra II’ pipettor (Matrix Technologies Corporation, Handforth SK9 3LP, UK). […]

Assay [3] has as its target mTOR PI kinase-related kinase (Homo sapiens, UniProt P42345). In words: In vitro mTOR PI kinase-related kinase assay (AlphaScreen), Test (b). The class given is biochemical. To be noted: recombinant mTOR (1362-2549), ATP 20 μM, read-out: IC50 versus mTOR PI kinase-related kinase. The procedure: (b) In Vitro mTOR PI Kinase-Related Kinase Assay
The assay used AlphaScreen technology (Gray et al, Analytical Biochemistry, 2003, 313: 234-245) to determine the ability of test compounds to inhibit phosphorylation by recombinant mTOR. […]
Each reaction was stopped by the addition of 10 μl of a mixture of EDTA (50 mM), bovine serum albumin (BSA; 0.5 mg/ml) and Tris-HCl pH7.4 buffer (50 mM) containing p70 S6 Kinase (T389) 1A5 Monoclonal Antibody (Cell Signalling Technology, Catalogue No. 9206B) and AlphaScreen Streptavidin donor and Protein A acceptor beads (200 ng; Perkin Elmer, Catalogue No. 6760002B and 6760137R respectively) were added and the assay plates were left for about 20 hours at room temperature in the dark. The resultant signals arising from laser light excitation at 680 nm were read using a Packard Envision instrument.
Phosphorylated biotinylated peptide is formed in situ as a result of mTOR mediated phosphorylation. […] Upon laser light excitation at 680 nm, the donor bead:acceptor bead complex produces a signal that can be measured. […]
mTOR enzyme inhibition for a given test compound was expressed as an IC50 value.

T1 sequence (P42336 whole entry, canonical isoform): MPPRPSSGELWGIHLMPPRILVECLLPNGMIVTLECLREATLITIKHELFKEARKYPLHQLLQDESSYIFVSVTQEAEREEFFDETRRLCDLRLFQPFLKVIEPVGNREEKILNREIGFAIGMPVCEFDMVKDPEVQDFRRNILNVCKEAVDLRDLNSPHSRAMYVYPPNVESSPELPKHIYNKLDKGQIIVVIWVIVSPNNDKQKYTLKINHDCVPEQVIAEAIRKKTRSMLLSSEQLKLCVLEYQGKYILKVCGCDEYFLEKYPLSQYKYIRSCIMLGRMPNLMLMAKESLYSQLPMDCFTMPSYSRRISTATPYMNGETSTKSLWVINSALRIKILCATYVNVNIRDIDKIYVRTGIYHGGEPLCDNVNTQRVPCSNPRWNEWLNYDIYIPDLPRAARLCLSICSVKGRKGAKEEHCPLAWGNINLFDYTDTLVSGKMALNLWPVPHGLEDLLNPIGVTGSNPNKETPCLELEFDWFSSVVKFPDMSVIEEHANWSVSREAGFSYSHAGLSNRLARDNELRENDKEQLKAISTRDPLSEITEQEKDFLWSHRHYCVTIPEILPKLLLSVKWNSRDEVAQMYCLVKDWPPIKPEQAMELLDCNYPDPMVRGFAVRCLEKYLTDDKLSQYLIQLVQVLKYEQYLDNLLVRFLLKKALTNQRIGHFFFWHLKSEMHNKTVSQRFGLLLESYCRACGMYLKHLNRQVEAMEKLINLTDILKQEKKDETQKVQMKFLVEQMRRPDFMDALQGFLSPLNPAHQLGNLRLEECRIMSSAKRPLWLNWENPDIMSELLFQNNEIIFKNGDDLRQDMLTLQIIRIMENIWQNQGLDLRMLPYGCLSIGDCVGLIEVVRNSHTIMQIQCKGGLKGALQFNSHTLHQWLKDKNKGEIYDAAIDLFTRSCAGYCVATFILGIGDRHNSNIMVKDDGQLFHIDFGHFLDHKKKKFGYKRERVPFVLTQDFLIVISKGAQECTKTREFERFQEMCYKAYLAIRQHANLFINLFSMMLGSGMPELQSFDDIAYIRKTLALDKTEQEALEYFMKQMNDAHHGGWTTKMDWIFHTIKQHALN
T1 sequence (P27986 whole entry partner, canonical isoform): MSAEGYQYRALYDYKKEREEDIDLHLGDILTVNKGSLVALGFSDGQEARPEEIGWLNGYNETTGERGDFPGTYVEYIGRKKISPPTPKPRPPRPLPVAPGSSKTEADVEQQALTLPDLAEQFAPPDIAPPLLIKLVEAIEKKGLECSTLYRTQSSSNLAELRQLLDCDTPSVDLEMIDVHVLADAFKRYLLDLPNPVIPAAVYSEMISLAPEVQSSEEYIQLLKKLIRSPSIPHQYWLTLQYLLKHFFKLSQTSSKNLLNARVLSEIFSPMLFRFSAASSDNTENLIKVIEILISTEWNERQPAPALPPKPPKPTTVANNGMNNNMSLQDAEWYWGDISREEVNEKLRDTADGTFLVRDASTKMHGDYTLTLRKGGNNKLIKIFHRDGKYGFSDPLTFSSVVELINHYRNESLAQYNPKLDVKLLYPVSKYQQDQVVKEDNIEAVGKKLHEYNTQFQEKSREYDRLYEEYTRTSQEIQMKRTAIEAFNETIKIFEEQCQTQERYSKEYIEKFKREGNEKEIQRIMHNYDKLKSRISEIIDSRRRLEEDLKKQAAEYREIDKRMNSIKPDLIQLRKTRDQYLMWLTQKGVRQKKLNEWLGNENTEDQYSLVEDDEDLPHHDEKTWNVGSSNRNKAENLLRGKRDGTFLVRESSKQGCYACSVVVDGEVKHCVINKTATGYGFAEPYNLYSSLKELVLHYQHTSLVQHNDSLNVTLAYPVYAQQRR
Sequence of mTOR PI kinase-related kinase (P42345 1362-2549): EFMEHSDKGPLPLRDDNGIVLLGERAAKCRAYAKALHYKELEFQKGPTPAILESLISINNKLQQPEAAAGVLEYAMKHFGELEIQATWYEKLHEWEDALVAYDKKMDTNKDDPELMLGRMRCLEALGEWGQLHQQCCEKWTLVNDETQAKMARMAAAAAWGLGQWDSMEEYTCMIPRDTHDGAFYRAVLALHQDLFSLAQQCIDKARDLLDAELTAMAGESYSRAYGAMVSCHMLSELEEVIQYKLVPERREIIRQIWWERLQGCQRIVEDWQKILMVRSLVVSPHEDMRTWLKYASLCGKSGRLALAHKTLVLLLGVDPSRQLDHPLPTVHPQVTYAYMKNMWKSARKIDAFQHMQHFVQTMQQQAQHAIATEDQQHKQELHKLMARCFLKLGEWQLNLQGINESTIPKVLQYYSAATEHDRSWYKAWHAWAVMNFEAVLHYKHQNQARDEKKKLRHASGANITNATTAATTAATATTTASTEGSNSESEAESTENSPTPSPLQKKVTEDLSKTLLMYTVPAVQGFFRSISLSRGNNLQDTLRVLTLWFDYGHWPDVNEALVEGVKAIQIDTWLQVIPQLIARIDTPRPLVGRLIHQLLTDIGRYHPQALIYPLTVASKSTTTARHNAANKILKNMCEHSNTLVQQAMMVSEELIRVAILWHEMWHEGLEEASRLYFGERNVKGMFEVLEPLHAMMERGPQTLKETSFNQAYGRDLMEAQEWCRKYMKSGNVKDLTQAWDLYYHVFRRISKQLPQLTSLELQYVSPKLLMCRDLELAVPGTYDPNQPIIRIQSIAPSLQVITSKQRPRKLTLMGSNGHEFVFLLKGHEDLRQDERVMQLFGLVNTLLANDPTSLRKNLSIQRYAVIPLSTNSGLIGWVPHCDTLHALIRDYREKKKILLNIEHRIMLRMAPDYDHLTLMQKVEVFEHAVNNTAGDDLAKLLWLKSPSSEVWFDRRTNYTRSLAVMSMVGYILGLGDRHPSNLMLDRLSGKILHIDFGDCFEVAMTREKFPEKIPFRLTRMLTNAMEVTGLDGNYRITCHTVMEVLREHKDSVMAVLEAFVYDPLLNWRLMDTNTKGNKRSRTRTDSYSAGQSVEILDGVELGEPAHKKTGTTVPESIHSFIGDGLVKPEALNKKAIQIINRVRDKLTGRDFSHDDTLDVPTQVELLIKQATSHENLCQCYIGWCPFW

`O=S(=O)(Nc1cc(-c2cnc3[nH]ccc3c2)cnc1Cl)c1ccccc1` [Example 3, N-[2-chloro-5-(1H-pyrrolo[2,3-b]pyridin-5-yl)pyridin-3-yl]benzenesulphonamide]: the values for the half-inhibitory concentration (IC50) in assay [1] and in assay [2] were approximately 200 nM and approximately 5000 nM, respectively.
With `Cc1nc2[nH]cnc2cc1-c1cnc(Cl)c(NS(=O)(=O)c2ccccc2)c1` [Example 7, N-[2-chloro-5-(5-methyl-3H-imidazo[4,5-b]pyridin-6-yl)pyridin-3-yl]benzenesulphonamide], the results for the half-maximal inhibitory concentration (IC50) in assay [1] and in assay [2] were approximately 500 nM and approximately 2000 nM, respectively.
As to `CS(=O)(=O)Nc1cc(-c2cnc3[nH]ccc3c2)cnc1Cl` [Example 1, N-[2-chloro-5-(1H-pyrrolo[2,3-b]pyridin-5-yl)pyridin-3-yl]methanesulphonamide], the figures for the IC50 in assay [1], in assay [3] and in assay [2] were approximately 500 nM, approximately 1000 nM and approximately 13000 nM, respectively.
Take `Cc1nc2[nH]ccc2cc1-c1cnc(Cl)c(NS(=O)(=O)c2ccccc2)c1` [Example 8, N-[2-chloro-5-(6-methyl-1H-pyrrolo[2,3-b]pyridin-5-yl)pyridin-3-yl]benzenesulphonamide]: the figures for the half-inhibitory concentration (IC50) in assay [1] and in assay [2] were approximately 100 nM and approximately 3000 nM, respectively.
